Results published in patent US9902986B2, “Enterobactin conjugates and uses thereof” (Massachusetts Institute of Technology, priority 2013, dated 2018).

Columns and labels:
[1] = tested on: E. coli CFT073 in the presence of S. aureus 25923; assay: Co-culture of E. coli CFT073 and S. aureus 25923; assay type: cell-based, Escherichia coli; conditions: co-culture in a 1:1 ratio
From the text: (FIG. 20A) Images showing three cultures untreated with any antibiotics: E. coli CFT073, S. aureus 25923, and E. coli CFT073 and S. aureus 25923 co-culture (in a 1:1 ratio). (FIG. 20B) Images showing co-cultures of E. coli CFT073 and S. aureus 25923 (in a 1:1 ratio), in the absence of any antibiotics or in the presence of Amp, Amx, Ent-Amp, or Ent-Amx.

[2] = tested on: S. aureus ATCC 25923; assay: Antibacterial activity assay, S. aureus; assay type: cell-based, Staphylococcus aureus; conditions: iron limitation (200 μM 2,2′-dipyridyl)
Experimental: No antibiotic marker was included in these cultures. […] Bacterial growth was determined by measuring OD600 using a BIOTEK SYNERGY HT plate reader. Each well condition was prepared in duplicate, and at least three independent replicates were conducted on different days. The resulting mean OD600 are reported and the error bars are the standard deviation.
Ampicillin and amoxicillin are β-lactam antibiotics that have periplasmic targets in Gram-negative bacteria and inhibit cell wall biosynthesis. The antibacterial activity of Ent-ampicillin and Ent-amoxicillin conjugates 44 and 45 was evaluated in vitro against a panel of Gram-negative and positive-bacteria. FIG. 6 provides exemplary results from antibacterial activity assays against select bacterial species that include non-pathogenic and pathogenic E. coli strains and also Staphylococcus aureus. Under conditions of iron limitation (200 μM 2,2′-dipyridyl), the conjugates provide 100- to 1000-fold improved activity against various E. coli strains, including human pathogens, compared to the unmodified antibiotics.

SMILES | killing of E. coli CFT073 co-cultured with S. aureus 25923 [1] | enhancement of activity compared to the unmodified antibiotics [2]
CC1(C)SC2C(NC(=O)C(NC(=O)CCCc3cn(CCOCCOCCOCCNC(=O)c4cc(O)c(O)c(C(=O)NC5COC(=O)C(NC(=O)c6cccc(O)c6O)COC(=O)C(NC(=O)c6cccc(O)c6O)COC5=O)c4)nn3)c3ccccc3)C(=O)N2C1C(=O)O (stereo not drawn) [Ent-Amp] | killed E. coli CFT073 | no enhancement of activity
CC1(C)SC2C(NC(=O)C(NC(=O)CCCc3cn(CCOCCOCCOCCNC(=O)c4cc(O)c(O)c(C(=O)NC5COC(=O)C(NC(=O)c6cccc(O)c6O)COC(=O)C(NC(=O)c6cccc(O)c6O)COC5=O)c4)nn3)c3ccc(O)cc3)C(=O)N2C1C(=O)O (stereo not drawn) [Ent-Amx] | killed E. coli CFT073 | no enhancement of activity
